Experimental data taken from patent US11198761B2, “Biodegradable polyionenes” (AGENCY FOR SCIENCE, TECHNOLOGY AND RESEARCH, priority 2017, dated 2021).

How the values were obtained:
[1] = system: S. aureus biofilms; experiment: Biofilm biomass assay (safranin O); assay type: cell-based, Staphylococcus aureus; details: 18 hours treatment
Description: (§1) The bacteria stock was diluted in Mueller Hinton Broth (MHB) to get an optical density (OD) reading of 0.07 at 600 nm. 48 wells of a 96 flat-well plate were plated with 100 μL of bacteria suspension each. The plate was then incubated at 37° C. Every day over the next 7 days, MHB was carefully removed from the plate so as not to disturb the biofilm at the bottom of the well, and replaced with 100 μL of fresh MHB to each well.
(§2) After the biofilm was cultured, at the end of 7 days, MHB was removed from the wells. The biofilms were washed carefully with PBS 3 times to remove planktonic cells. The surfactant was weighed in a micro-centrifuge tube, and the weighed sample was diluted to 10000 mg L^−1 using distilled water. Serial dilution was conducted to obtain surfactant solutions of concentrations 100 mg L^−1, 70 mg L^−1, 50 mg L^−1, 35 mg L^−1, 25 mg L^−1, 20 mg L^−1, and 10 mg L^−1. The solvent was 20% distilled water and 80% MHB for each solution. The control was 20% distilled water and 80% MHB without surfactant. The surfactant solutions of different concentrations were added to the wells, 100 μL into each, with 6 replicates for each concentration. The plate was incubated at 37° C. for 18 hours. […] At the end of the incubation period, the optical density (OD) reading of the plate was taken at 550 nm.

[2] = system: C. albicans (ATCC No 10231); experiment: MIC, broth microdilution; assay type: cell-based, Candida albicans; details: Gemini-surfactant series S; 42 hours, room temperature
Description: (§3) Bacterial and fungal samples were inoculated according to ATCC's requirement. Briefly, bacteria and fungi were grown in Mueller Hinton Broth (MHB) at 37° C. and room temperature, respectively overnight to allow the microbes to enter the log growth phase with constant 100 rpm shaking. Minimum inhibitory concentration (MIC) of the polymers was determined using the broth microdilution method. 100 μL of 20% v/v water-containing broth with various polymer or Gemini-surfactant concentrations was first added into each well of a 96-well tissue culture plate. The inoculated overnight microbe solution was first diluted to an optical density (O.D.) reading of 0.07 using a microplate reader (TECAN, Switzerland). This will correspond to 3×10^8 CFU/mL based on the McFarland 1 standard solution (CFU=colony forming units). The microbe solution was further diluted 1000 times to achieve a final 3×10^5 CFU/mL. To each well, an equal volume of diluted microbes solution was added and incubated at 37° C. for 18 hours for bacteria samples and at room temperature for 42 hours for fungi samples. There were 6 replicates for each concentration tested, with negative control being microbes added into broth containing 20% v/v deionized water. MIC was taken as the lowest concentration at which there was no observable microbe growth when measured by the microplate reader.

[3] = system: E. coli biofilms; experiment: Biofilm biomass assay (safranin O); assay type: cell-based, Escherichia coli; details: 18 hours treatment
Description: as §1, §2

[4] = system: S. aureus, E. coli, P. aeruginosa, C. albicans; experiment: Killing kinetics, several strains together; assay type: cell-based
Description: 600 μL of 3×10^5 CFU/mL microbial suspension was added to each concentration of the polymer. […] 20 μL of the diluted microbial suspension was then plated onto agar plates and incubated for 24 hours and 42 hours at 37° C. and room temperature for bacteria and fungi respectively, then manually counted for CFU.

[5] = system: P. aeruginosa (ATCC No. 9027); experiment: MIC, broth microdilution; assay type: cell-based, Pseudomonas aeruginosa; details: Gemini-surfactant series S; 18 hours, 37° C.
Description: as §3

[6] = system: E. coli (ATCC No. 25922); experiment: MIC, broth microdilution; assay type: cell-based, Escherichia coli; details: Gemini-surfactant series S; 18 hours, 37° C.
Description: as §3

[7] = system: rat red blood cells (rRBCs); experiment: Hemolysis assay; assay type: cell-based; details: Gemini-surfactant series S; 1 hour, 37° C.
Description: Freshly obtained rat red blood cells (rRBC) from the Animal Handling Unit of Biomedical Research Center (Singapore) was used to test the hemolytic activity of the polymers and Gemini-surfactants. The rRBC was diluted to 4% v/v with phosphate-buffered saline (PBS) and added to an equal volume of 0.2% v/v Triton-X solution. A microplate reader was used to measure the optical density (O.D.) reading to make sure the value is between 0.5 and 0.6. An equal volume of different polymer or Gemini-surfactant concentrations was added to the diluted blood and incubated for 1 hour at 37° C. The samples were centrifuged at 1000 g at 4° C. for 5 minutes and 100 μL of the supernatant was collected and transferred to a 96-well tissue culture plate. There were 4 replicates for each concentration. Haemoglobin release was measured using the microplate reader at 576 nm. rRBCs treated with PBS were used as the […] control, while those treated with 0.2% v/v Triton-X was used as the […] control.
Percentage of hemolysis was calculated as follows: Hemolysis (%)═[(O.D.576 nm of the treated sample−O.D.576 nm of negative control)/(O.D.576 nm of positive control−O.D.576 nm of negative control)]×100%
HC50 was taken as the polymer concentration at which the polymer causes 50% hemolysis.

[8] = system: E. coli biofilms; experiment: XTT assay for cell viability of biofilms; assay type: cell-based, Escherichia coli; details: 18 hours treatment
Description: as §1
(§4) After the biofilm was cultured, at the end of 7 days, MHB was removed from the wells. The biofilms were washed carefully with PBS 3 times to remove planktonic cells. The surfactant was weighed in a micro-centrifuge tube, and the weighed sample was diluted to 10,000 mg L^−1 using distilled water. Serial dilution was conducted to obtain surfactant solutions having concentrations of 100 mg L^−1, 70 mg L^−1, 50 mg L^−1, 35 mg L^−1, 25 mg L^−1, 20 mg L^−1, and 10 mg L^−1. The solvent was 20% distilled water and 80% MHB for each solution. The control was 20% distilled water and 80% MHB without surfactant. The surfactant solutions of different concentrations were added to the wells, 100 μL into each, with 6 replicates for each concentration. The plate was then incubated at 37° C. for 18 hours. […] At the end of the incubation period, the optical density (OD) reading of the plate was taken at 490 nm.

[9] = system: S. aureus biofilms; experiment: XTT assay for cell viability of biofilms; assay type: cell-based, Staphylococcus aureus; details: 18 hours treatment
Description: as §1, §4

[10] = system: S. aureus, E. coli, P. aeruginosa, C. albicans; experiment: Killing efficiency test (CFU on agar after MIC testing); assay type: cell-based; details: at MIC and 2×MIC, all the microbes
Description: After MIC testing, all solutions from the control, ½MIC, MIC and 2MIC wells were collected and subjected to a series of ten-fold dilution. 20 μL of the diluted microbe solution was streaked onto pre-casted agar plates using LB+1.5% agar from the first Base. Agar plates with bacteria samples were incubated at 37° C. for 18 hours while those with fungi samples were incubated for 42 hours at room temperature before the CFUs were counted.

[11] = system: S. aureus (ATCC No. 6538); experiment: MIC, broth microdilution; assay type: cell-based, Staphylococcus aureus; details: Gemini-surfactant series S; 18 hours, 37° C.
Description: as §3

[12] = system: K. pneumoniae 8637; experiment: Efficacy (ED50/ED95) in K. pneumoniae 8637-induced pneumonia; assay type: in vivo; details: immunosuppressed mice, intraperitoneally once daily for 3 days, survival over 5 days, BLISS method
Description: ICR mice (female, 7 weeks old, 24-26 mg) were used for the in vivo studies. Immunosuppression was induced by intraperitoneal injection of 200 mg/Kg cyclophosphamide (Hengrui Corp, Jiangsu Province, P. R. China) 4 days prior to infection. Mice were anesthetized by intra-peritoneal injection of 1% pentobarbital (40 mg/kg, Sigma).
The immunosuppression of mice was induced as described above. Overnight cultures of K. pneumoniae 8637 were harvested and suspended in PBS. Before instillation with K. pneumoniae 8637, the mice were anesthetized using an intraperitoneal injection with 1% pentobarbital (40 mg/kg). Each of the immunosuppressed mice was infected intranasally with 0.03 mL of the bacterial suspension at designated doses (i.e. 1×10^9, 1.5×10^9, 2.3×10^9, 3.5×10^9, 5.3×10^9, 8.0×10^9 CFU/ml, four mice per group). The minimum lethal dose was defined as the lowest dose, which was sufficient to cause 100% mortality. It was determined from the survival rate of mice at 5 days post-infection by the BLISS method.
The number of surviving mice in each group was recorded for 5 days to assess ED50 by the BLISS method.

[13] = system: K. pneumoniae 8637; experiment: Survival of K. pneumoniae 8637-infected mice; assay type: in vivo; details: 2.0 mg/kg intraperitoneally once daily for 3 days, five days, n=10
Description: ICR mice (female, 7 weeks old, […]) were used for the in vivo studies. Immunosuppression was induced by intraperitoneal injection of 200 mg/Kg cyclophosphamide (Hengrui Corp, Jiangsu Province, P. R. China) 4 days prior to infection. Mice were anesthetized by intra-peritoneal injection of 1% pentobarbital (40 mg/kg, Sigma).
To investigate the in vivo antibacterial efficacy of P-1a-1 (6037B), a pneumonia mouse model was established. The immunosuppression of mice was induced as described above. Overnight cultures of K. pneumoniae 8637 were harvested and suspended in PBS. Before instillation with K. pneumoniae 8637, the mice were anesthetized using an intraperitoneal injection with 1% pentobarbital (40 mg/kg). […] It was determined from the survival rate of mice at 5 days post-infection by the BLISS method.
To further determine the in vivo therapeutic efficacy of P-1a-1 (6037B), survival of the K. pneumoniae 8637-infected mice was monitored with and without treatment. […] After being anesthetized, each of the immunosuppressed mice was inoculated intranasally with 0.03 mL of bacterial suspension at the minimum lethal dose determined above. […] The mice were monitored for a period of five days, and the number of surviving mice in each group was recorded. […]

| Compound | biomass of biofilm [1] | MIC CA [2] | biomass of biofilm [3] | killing of all four strains of microbes ([4]; 16 and 32×MIC, 2 minutes) | concentration needed to completely eradicate the microbes ([4]; 30 seconds) | MIC PA [5] | MIC EC [6] | Hemolysis, HC50 [7] | biofilm cell viability [8] | biofilm cell viability [9] | reduction in the colony forming units (CFU) [10] | MIC SA [11] | ED50 ([12]; Klebsiella pneumoniae, 8637, ip) | ED95 [12] | survival [13] |
| --- | --- | --- | --- | --- | --- | --- | --- | --- | --- | --- | --- | --- | --- | --- | --- |
| CCCCCCCCCC[N+](C)(C)Cc1ccc(C(=O)NCCCCCCNC(=O)c2ccc(C[N+](C)(C)CCCCCCCCCC)cc2)cc1.[Cl-].[Cl-] [S-3g] | reduced in a dose dependent manner | 2 ppm | reduced in a dose dependent manner | completely killed | 64 ×MIC | 8 ppm | 1 ppm | 125-250 ppm | reduced in a dose dependent manner | reduced in a dose dependent manner | ≥ 99.9% | 1 ppm |  |  |  |
| C[C@@H](O)[C@H]1C(=O)N2C(C(=O)O)=C(SCCN=CN)C[C@H]12 [imipenem] |  |  |  |  |  |  |  |  |  |  |  |  | 2.75 mg/kg | 20.0 mg/kg | 60% |
